Tests used:
Type in all cases: cell-based
TNFα = assay: PBMC assay, LPS-induced TNFα (Meso Scale); settings: Homo sapiens, PBMCs, 100 ng/mL LPS 18-24 hrs; for inhibition at 0.1 µM: compound at 0.1 μM; for inhibition at 1 µM: compound at 1 μM; for inhibition at 10 µM: compound at 10 μM
Description: (§1) FIG. 3 represents the activity against TNFα in peripheral blood mononuclear cells (PBMCs), plated in 96 well plates and pretreated with compound for 1 hour and then induced with 100 ng/mL LPS for 18-24 hrs. Cytokines in the media were measured according to MesoScale protocol. The negative control wells were treated with DMSO. Compound activity is measured as a percentage of LPS-induced activity.
(§2) Frozen primary blood mononuclear cells (PBMCs) were purchased from AllCells. Cells were quick thawed, washed once with RPMI-1640/10% FBS.
(§3) 1% Penicillin/1% Streptomycin and plated in 96 well plates at 200,000 cells per well. Cells were pretreated with DMSO only, or Compound 1 for 1 hour and then induced with 100 ng/mL lipopolysaccharide (LPS) for 18-24 hrs. The supernatant was analyzed for IL-1 beta, IL-6, and TNFα, using Meso Scale assay according to manufacturer's protocol. The negative control wells were treated with DMSO.
(§4) Compound activity was measured as fold difference from the DMSO control. IL-1β activity is shown in FIG. 1; IL-6 activity is shown in FIG. 2; TNFα activity is shown in FIG. 3; and IL-2 activity is shown in FIG. 4. Additional data for compounds (shown as percent inhibition) at 10 μM is shown in Table 1; at 1 μM in Table 2; and at 0.1 μM in Table 3.

MV-4-11 cells = assay: Cell viability assay (CellTiter-Glo), MV-4-11 proliferation; settings: Homo sapiens, MV4-11, 72 h, 3 days; for inhibition at 1 µM: compound at 1 μM; for inhibition at 10 µM: compound at 10 μM
Description: Molm-13 and MV-4-11 cells were cultivated in RPMI-1640 (10% FBS/1% pen-strep) and were plated in white walled 96-well plates at 20,000 cells/well.
Cells were treated with compound at the indicated concentration or DMSO (control) and the cultures were incubated for 3 days at 37° C. and 5% CO2. Following the incubation period, 100 μL of CellTiterGlow (CTG) reagent (CellTiter-Glo® Luminescent Cell Viability Assay, Promega (Madison, Wis.)) was added to each well. Following a 10 min incubation with shaking, luminescence was measured using a Victor Wallac Luminometer.

IL-6 = assay: PBMC assay, LPS-induced IL-6 (Meso Scale); settings: Homo sapiens, PBMCs, 100 ng/mL LPS 18-24 hrs; for inhibition at 0.1 µM: compound at 0.1 μM; for inhibition at 1 µM: compound at 1 μM; for inhibition at 10 µM: compound at 10 μM
Description: as §1, with “2” for “3”, “IL-6” for “TNFα”, “Cytokines” for “Cytokines in the media”, “Negative” for “The negative”, “was” for “is”
as §2, §3, §4

IL-2 = assay: Anti-CD3-induced IL-2 secretion in PBMCs (Mesoscale); settings: Homo sapiens, PBMC, anti-CD3 stimulated PBMCs, 24 hr, vs DMSO control, read-out: IL-2 Fold Change; for fold induction at 0.1 µM: compound at 0.1 μM; for fold induction at 1 µM: compound at 1 μM; for fold induction at 10 µM: compound 10 μM
Description: FIG. 4 represents Anti-CD3-induced IL-2 secretion in PBMCs. 1 μg/mL anti-CD3 (OKT-3) antibody in PBS coated onto 96-well plates overnight at 4° C. Approximately, 550,000 PBMCs were added to each well, followed by addition of DMSO only (control) or Compound 1. Induction was measured after 24 hrs as fold difference from the DMSO stimulated control.
as §2
For the IL-2 analysis, 96 well plates were precoated with 1 μg/mL anti-human CD3 antibody (OKT3, eBioscience Inc.). After washing with PBS, Compound 1 was added (50 μL/well) followed by PBMCs diluted at 3-4 million cells/mL (150 μL/well). Plates were incubated for 24 hr and the supernatants collected for Mesoscale IL-2 analysis.
as §4

IL-1β = assay: PBMC assay, LPS-induced IL-1β (Meso Scale); settings: Homo sapiens, PBMCs, 100 ng/mL LPS 18-24 hrs; for inhibition at 0.1 µM: compound at 0.1 μM; for inhibition at 1 µM: compound at 1 μM; for inhibition at 10 µM: compound at 10 μM
Description: as §1, with “1” for “3”, “IL-1-beta” for “TNFα”, “Negative” for “The negative”
as §2, §3, §4

SMILES	inhibition at 0.1 µM (TNFα)	inhibition at 1 µM (TNFα)	inhibition at 1 µM (MV-4-11 cells)	inhibition at 10 µM (MV-4-11 cells)	inhibition at 0.1 µM (IL-6)	inhibition at 1 µM (IL-6)	fold induction at 0.1 µM (IL-2)	fold induction at 1 µM (IL-2)	inhibition at 0.1 µM (IL-1β)	inhibition at 1 µM (IL-1β)	inhibition at 10 µM (TNFα)	inhibition at 10 µM (IL-6)	fold induction at 10 µM (IL-2)	inhibition at 10 µM (IL-1β)
O=C1CCC[C@H](N2Cc3c(OCc4ccc(C5CCNCC5)cc4)cccc3C2=O)C(=O)N1 [Compound 4]	81%	90%	0%	0%	43%	67%	1.3	2.3	72%	86%	–	–	–	–
O=C1CCC[C@H](N2Cc3c(OCc4ccc(CN5CCOCC5)cc4)cc(F)cc3C2=O)C(=O)N1 [Compound 7]	62%	–	0%	0%	55%	–	1	1.1	71%	–	–	–	–	–
O=C1CCC[C@H](N2C(=O)c3cccc(OCc4ccc(CN5CCOCC5)cc4)c3C2=O)C(=O)N1 [Compound 11]	21%	–	0%	0%	12%	–	1.2	1.9	21%	–	–	–	–	–
O=C1CCC[C@H](N2Cc3cc(OCc4ccc(CN5CCOCC5)cc4)ccc3C2=O)C(=O)N1 [Compound 15]	–	65%	38%	99%	–	10%	–	1.9	–	59%	87%	50%	2.1	81%
O=C1COC[C@H](N2Cc3c(OCc4ccc(CN5CCOCC5)cc4)cccc3C2=O)C(=O)N1 [Compound 16]	–	27%	0%	99%	–	5%	–	0.7	–	24%	75%	78%	0.2	52%
Cc1cnc(Nc2ccc(OCCCNCC(=O)NCc3ccc(COc4cccc5c4CN(C4CCC(=O)NC4=O)C5=O)cc3)cc2)nc1Nc1cccc(S(=O)(=O)NC(C)(C)C)c1 (stereo not drawn) [Compound 17]	–	75%	31%	98%	–	35%	–	1.5	–	75%	100%	100%	0.1	100%
N#Cc1ccc2c(c1OCc1ccc(CN3CCOCC3)cc1)CN([C@H]1CCCC(=O)NC1=O)C2=O [Compound 19, 2-[(S)-2,7-Dioxo-3-azepanyl]-4-{[p-(morpholinomethyl)phenyl]methoxy}-1-oxo-5-isoindolinecarbonitrile]	41%	73%	0%	0%	12%	43%	1.5	2.4	22%	65%	–	–	–	–
Cc1cnc(Nc2ccc(OCCCNCC(=O)NCc3ccc(COc4cc(F)cc5c4CN([C@H]4CCCC(=O)NC4=O)C5=O)cc3)cc2)nc1Nc1cccc(S(=O)(=O)NC(C)(C)C)c1 [Compound 21]	–	20%	0%	97%	–	8%	–	0.9	–	6%	30%	7%	1	11%
Cc1cnc(Nc2ccc(OCCCNCC(=O)NCc3ccc(COc4cccc5c4CN([C@H]4CCC(=O)NC4=O)C5=O)cc3)cc2)nc1Nc1cccc(S(=O)(=O)NC(C)(C)C)c1 [Compound 24]	–	10%	44%	80%	–	9%	–	1	–	7%	23%	1%	1	23%

From patent publication US10927104B2, “Ether compounds and uses thereof” (BioTheryX, Inc., priority 2017, dated 2021)
